Data set [1] concerns the target T1, GAL4-mPPARγ (Mus musculus, UniProt P37238).
T1 construct: expressed in transfected cells; host or cells: COS7
The data set can be described thus: GAL4-mPPARγ activation, transient transfection luciferase reporter in COS7 cells. Type of data set: cell-based. The following applies: for Activation COS7 (result in words), ToxPi chemicals / AC50 / Activation COS7 (result in words), ToxCast PPARγ list: Cos-7 transient transfection; for Activation COS7 (result in words), ToxPi chemicals: PPARγ or RXRα activation assays (Table 2); for Activation of GAL4-PPARγ (text): COS7, 100 μM through 0.137 μM; for Activation COS7 (result in words), ToxCast PPARγ list: PPARγ activation or antagonism assays (Table 1, Table S6).

The test system of data set [2] is 3T3-L1 preadipocytes. The arrangement: method as in earlier work. The conditions noted are these: not tested here; ref Kanayama et al. 2005; Li et al. 2012; Chamorro-García et al. 2012; Masuno et al. 2002; cited from earlier work.
Data set [3] has as its system PPARγ. The conditions noted are these: cited from earlier work.
For data set [4], the system named is PPRE. Also noted: method as in Knudsen et al. 2011. The following applies: ToxCast Phase I 2011 release; NA = not active; ref Knudsen et al. 2011; read-out: ATGC PPRE AC50; cited from earlier work.
Data set [5] has as its system 3T3-L1 preadipocytes. The data set can be described thus: 3T3-L1 adipogenesis assay (lipid accumulation, adipogenic gene expression). The following applies: 0.02-20 μM, 5 days after MDI induction. Type of data set: cell-based. The gist of the method:
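After 2-day MDI induction with biotin and pantothenate, 3T3-L1 cells were treated 5 days with chemicals at 0.02–20 μM (0.1% DMSO; 10 μM if toxic). Lipid read as Nile red/Hoechst fluorescence ratio; adipogenic genes by QPCR, 2^ΔΔCt versus 36b4, normalized to DMSO.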

Data set [6] has as its system DR4/LXRE. The arrangement: method as in Knudsen et al. 2011. The following applies: ToxCast Phase I 2011 release; NA = not active; ref Knudsen et al. 2011; read-out: ATGC LXRE AC50; cited from earlier work.
Data set [7] concerns LXRα. The arrangement: method as in Knudsen et al. 2011. The following applies: ToxCast Phase I 2011 release; NA = not active; ref Knudsen et al. 2011; read-out: ATGT LXRα AC50; cited from earlier work.
For data set [8], the system named is LXRβ. Also noted: method as in Knudsen et al. 2011. The conditions noted are these: ToxCast Phase I 2011 release; NA = not active; ref Knudsen et al. 2011; read-out: ATGT LXRβ AC50; cited from earlier work.
Data set [9] relates to SREBP. The arrangement: method as in Knudsen et al. 2011. The following applies: ToxCast Phase I 2011 release; NA = not active; ref Knudsen et al. 2011; read-out: ATGC SREBP AC50; cited from earlier work.
For data set [10], the system named is LXRβ. Also noted: method as in Knudsen et al. 2011. The following applies: ToxCast Phase I 2011 release; NA = not active; ref Knudsen et al. 2011; read-out: NCGC LXR AC50; cited from earlier work.
Data set [11] relates to COS7 cells. The data set can be described thus: Cytotoxicity in transfected COS7 cells measured as decreased β-galactosidase activity. The conditions noted are these: African green monkey, 24 h. The method, then: pCMX-Gal4, pCMX-Gal4-mPPARγ, and pCMX-Gal4-hRXRα were previously described ([Grün et al. 2006]). Transient transfections were performed in COS7 cells as described ([Chamorro-García et al. 2012]). Briefly, COS7 cells were seeded at 15,000 cells per well in 96-well tissue culture plates in 10% calf bovine serum. The following day, cells were transfected in Opti-MEM at ~ 90% confluency. One microgram of CMX-GAL4 effector plasmid was co-transfected with 5 μg tk-(MH100)4-luciferase reporter and 5 μg of CMX-β-galactosidase transfection control plasmids in Opti-MEM® using Lipofectamine® 2000 reagent (Invitrogen™ Life Technologies, Carlsbad, CA, USA), following the manufacturer’s recommended protocol. All chemicals were solvated in dimethyl sulfoxide (DMSO). After overnight incubation, the medium was replaced with Dulbecco’s Modified Eagle Medium (DMEM; HyClone, Logan, UT, USA), 10% resin charcoal stripped fetal bovine serum (FBS) plus ligands at concentrations indicated in the figure legends for an additional 24 hr. DMSO concentration was maintained at 0.05% across all chemical treatments. Cells were lysed and assayed for luciferase and β-galactosidase activity as previously described ([Forman et al. 1995]). All transfections were performed in triplicate and reproduced in multiple experiments. Data are reported as fold induction or reduction over vehicle ([…]) controls ± SEM (standard error of the mean) using standard propagation of error ([Bevington and Robinson 2003]). […] The EC50, EC10, IC50, and IC10 values from NCGC and ToxCast™ are reported from gain AC50 and AC10 values in the ToxCast™ 2014 release ([Filer et al. 2014]).
Figure 1 ToxCast™ Chemical Activity on PPARγ. The ability of a graded dose series of ToxCast™ chemicals to (A) activate or (B) antagonize GAL4-mPPARγ was tested in transiently transfected COS7 cells. (A, B) Data points are averages of triplicate transfections (three biological replicates). […] Data are depicted as (A) fold induction or (B) reduction over vehicle (0.05% DMSO) controls ± SEM. (A) ToxCast™ chemicals were tested in 3-fold serial dilutions from 100 μM through 0.137 μM, with the final data point being 0.05% DMSO. Rosiglitazone serves as a positive control activator. (B) ToxCast™ chemicals were tested in 3-fold serial dilutions from 100 μM, in competition with 50 nM rosiglitazone (Rosi). […] (C) EC50, EC10, IC50, and IC10 values calculated from A and B are reported and compared to commercial assays (see Figure S1). Note: ATG, Attagene GAL-PPARγ activation assay; NCGC, GeneBLAzer® agonist (EC values) or antagonist (IC values) assays. Triphenyltin was previously published ([Kanayama et al. 2005]).

Data set [12] has as its system Human PPARγ. The conditions noted are these: cited from earlier work.
Data set [13] relates to PPARγ. The conditions noted are these: ref Filer et al. 2014, cited from earlier work.
Data set [14] has as its system PPARγ. Also noted: method as in Filer et al. 2014. The conditions noted are these: PPARγ; NA = not active; ref Filer et al. 2014; read-out: NCGC Antag. AC50, 2014 Release; cited from earlier work.
Setting [15] is: ToxCast Phase I 2011 release, NA = not active, ref Knudsen et al. 2011, read-out: ATGT PPARγ AC50.
Setting [16] is: PPARγ, NA = not active, ref Filer et al. 2014, read-out: ATG Agonist AC50, 2014 Release.
Where [17] appears, read: PPARγ, NA = not active, ref Knudsen et al. 2011, read-out: ATG Agonist AC50, 2011 Release.
Setting [18] is: PPARγ direct binding, NA = not active, ref Filer et al. 2014, read-out: NVS Agonist AC50, 2014 Release.
The mark [19] stands for this setting: PPARγ direct binding, NA = not active, ref Knudsen et al. 2011, read-out: NVS Agonist AC50, 2011 Release.
The mark [20] stands for this setting: PPARγ, NA = not active, read-out: NCGC Agonist AC50, 2014 Release.

Each structure is given as a SMILES string. Read-outs that look alike come from different tables or passages of the source.

T1 sequence (P37238 with tags, fused parts or gaps limits assumed): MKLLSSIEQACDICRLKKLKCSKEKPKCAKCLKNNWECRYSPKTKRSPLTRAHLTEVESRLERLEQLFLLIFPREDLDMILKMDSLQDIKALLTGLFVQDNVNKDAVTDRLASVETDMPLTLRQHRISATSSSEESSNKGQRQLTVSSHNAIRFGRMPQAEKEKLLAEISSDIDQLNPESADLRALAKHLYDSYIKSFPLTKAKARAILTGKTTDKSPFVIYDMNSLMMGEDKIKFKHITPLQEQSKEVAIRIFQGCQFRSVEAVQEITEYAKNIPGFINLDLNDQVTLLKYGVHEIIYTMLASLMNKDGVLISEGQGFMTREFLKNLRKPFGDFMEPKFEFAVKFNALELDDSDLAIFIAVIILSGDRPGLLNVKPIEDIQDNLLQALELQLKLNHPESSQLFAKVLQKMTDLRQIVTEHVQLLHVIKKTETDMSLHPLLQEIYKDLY

In the case of `CC(C)(c1ccc(O)cc1)c1ccc(O)cc1` [Bisphenol A], in data set [1], the “Activation COS7 (result in words), ToxPi chemicals” value (shortened to “Activation COS7 … ToxPi chemicals”) is recorded as “Inactive”. Moreover, the “Adipogenesis 3T3-L1 (result in words), previously published” value in data set [2] is reported as “Positive”. The values for the AC50 in data set [3] (setting [15]) and in data set [4] were 27 µM and 37 µM, respectively.

In the case of `COP(=S)(OC)Oc1ccc(SC)c(C)c1` [Fenthion], in data set [1], the “Activation COS7 … ToxPi chemicals” value was “Inactive”. In addition, the “Adipogenesis 3T3-L1 (result in words)” value in [5] was “Negative”. In addition, the AC50 is 36 µM in [3] (setting [15]); 34 µM in [6]; 33 µM in data set [7]; 37 µM in [8]; 18 µM in data set [4].

Consider `CCOP(=S)(Oc1cnc(C(C)(C)C)nc1)OC(C)C` (stereo not drawn) [Tebupirimfos], for which the “Activation COS7 … ToxPi chemicals” value in [1] is reported as “Inactive”. Besides, the “Adipogenesis 3T3-L1 (result in words)” value in [5] is on record as “Positive”. Besides, the AC50 in data set [3] (setting [15]) is 43 µM; in [6], 9.4 µM; in data set [7] it was 30 µM; in data set [8], 22 µM; in data set [9] it was 31 µM; in data set [10], 7.1 µM.

Turning to `CCCOC/C(=N\c1ccc(Cl)cc1C(F)(F)F)n1ccnc1` [Triflumizole], the “Activation of GAL4-PPARγ (text)” value in [1] is on record as “activated GAL-PPARγ”. Further, the AC50 in data set [1] is 11.5 µM; in [3] (setting [16]), 2.2 µM; in data set [3] (setting [17]), 2.8 µM; in data set [3] (ToxCast 2014 release, ref Filer et al. 2014, read-out: Attagene AC50 (panel A, w/o Z-Score Correction ranking)) it was 20.4 µM; in data set [12] (setting [18]), 20.8 µM; in data set [12] (setting [19]), 35 µM. The AC50 in data set [12] (direct binding, ToxCast 2014 release, ref Filer et al. 2014, read-out: NovaScreen AC50 (panel A)) was 14.1 µM; in data set [13] (setting [20]) it was 67.5 µM; in [13] (ToxCast 2014 release, read-out: Tox21/NCGC AC50 (panel A)) it was 79.9 µM; in [14] it was 0.3 µM. Besides, the “Activation COS7 (result in words), ToxCast PPARγ list” value in data set [1] is given as “PPARγ activator”. Besides, in data set [11], the “Concentration at which cytotoxicity (decreased β-galactosidase activity) was observed” value stood at 100 µM. Moreover, the “Adipogenesis 3T3-L1 (result in words), previously published” value in data set [2] is on record as “Positive”.

In the case of `[OH-].c1cc[c]([Sn+]([c]2ccccc2)[c]2ccccc2)cc1` [Triphenyltin], the “Activation of GAL4-PPARγ (text)” value in data set [1] is listed as “activated GAL-PPARγ”. Moreover, the “Activation COS7 (result in words), ToxCast PPARγ list” value in data set [1] is on record as “PPARγ activator”. The “Activation COS7 … ToxPi chemicals” value in [1] is “PPARγ activator”. Also, the AC50 was 0.02 µM in data set [1] (read-out: Activation AC50 (PPARγ activators)); 0.02 µM in data set [3] (setting [16]); 0.022 µM in [3] (setting [17]); 0.28 µM in [12] (setting [18]); 0.54 µM in data set [12] (setting [19]); 21.6 µM in data set [13] (setting [20]). In addition, the AC50 in [14] is 0.02 µM; in data set [4], 0.009 µM. The “Adipogenesis 3T3-L1 (result in words), previously published” value in data set [2] is listed as “Positive”.

These data come from PMC4977052, “On the Utility of ToxCast™ and ToxPi as Methods for Identifying New Obesogens” (Environmental Health Perspectives, 2016).
